{"source": "patent US20080096870A1", "about": "“Methods and Materials for Treating Mental Illness” (priority 2004, published 2008)", "key": {"[1]": {"test_system": "AMPA/kainate receptor", "test": "AMPA/kainate receptor-mediated mEPSCs, patch-clamp recording in cerebrocortical cultured neurons", "format": "cell-based, rat", "details": "TTX-containing solution, −60 mV, MK-801 10 μM; concentration-dependent", "protocol": "(§1) Neuronal Cultures. Cerebral cortices were dissected from newborn rats and treated with 0.25% trypsin to dissociate the cells. Dissociated cells were resuspended in Dulbecco's Modified Eagle's Medium (DMEM) containing 10% plasma derived horse serum (PDHS) and were plated in poly-L-lysine-coated, 35 mm Nunc plastic tissue culture dishes (3.0×10^6 cells/dish/2ml media). Cultures were maintained in an atmosphere of 5% CO2/95% air.\nElectrophysiological recordings: Voltage- and current-clamp recordings of membrane ionic currents and potentials were conducted by using Axopatch 200B and Axoclamp 1B amplifiers (Axon Instruments, Foster City, Calif.). […]\n(§2) The miniature EPSCs were recorded in TTX-containing (0.3-1 μM), Mg^2+-free (in case of NMDA receptor recording) extracellular solution at Vh=−60 mV. […]\nThe digitized data was analyzed off-line using the Mini-Analysis Program (Synaptosoft, Leonia, N.J.) or the pCLAMP9 (Axon Instruments) (Axon Instruments, Union City, Calif.). […]\nFIG. 3. […] A: Representative traces of AMPA-kainate mEPSCs recorded from a cortical neuron under the following conditions: control; in the presence of 3,5-DBr-L-Phe (100 μM); after washout of 3,5-DBr-L-Phe. AMPA/kainate receptor-mediated currents were recorded in TTX-containing (0.3 μM) extracellular solution at holding membrane potential of −60 mV. […] Data is expressed as mean±SEM of 6-7 cells. […]"}, "[2]": {"test_system": "GABA receptor", "test": "GABA receptor-mediated mIPSCs in cerebrocortical cultured neurons", "format": "cell-based, rat", "details": "100 μM; TTX-containing solution, −60 mV", "protocol": "as §1\nElectrophysiological recordings: Voltage- and current-clamp recordings of membrane ionic currents and potentials were conducted by using Axopatch 200B and Axoclamp 1B amplifiers (Axon Instruments, Foster City, Calif.). The perforated nystatin- and gramicidin-based patch-clamp recording techniques were used to reduce nonspecific rundown of intracellular processes. Neurons were used for electrophysiological recordings between 12 and 27 days in vitro. […]\nas §2\nFIG. 5. […] A: Representative GABA receptor-mediated mIPSCs recorded from the same neuron before (control), during (100 μM), and after (wash) application of 3,5-DBr-L-Phe. GABA receptor-mediated mIPSCs were recorded in TTX-containing (0.3 μM) extracellular solution at holding membrane potential of −60 mV. […] Summary data is expressed as mean±SEM of 5 cells."}, "[3]": {"test_system": "NMDA receptor", "test": "NMDA receptor-mediated currents, patch-clamp recording in cultured cerebrocortical neurons", "format": "cell-based, rat", "details": "for effect on NMDA receptor-mediated current: rat cerebrocortical neurons, TTX-containing, Mg2+-free extracellular solution, holding potential −60 mV, concentration-dependent"}, "[4]": {"test_system": "glutamate release", "test": "Evoked paired EPSCs (2nd/1st amplitude ratio) in cerebrocortical cultured neuron", "format": "cell-based, rat", "details": "100 μM, Mg2+ 1 mM, Vh −60 mV", "protocol": "as §1\n(§3) Electrophysiological recordings: Voltage- and current-clamp recordings of membrane ionic currents and potentials were conducted by using Axopatch 200B and Axoclamp 1B amplifiers (Axon Instruments, Foster City, Calif.). The perforated nystatin- and gramicidin-based patch-clamp recording techniques were used to reduce nonspecific rundown of intracellular processes. Neurons were used for electrophysiological recordings between 12 and 27 days in vitro. […] Patch microelectrodes were pulled from 1.5 mm borosilicate glass tubing using a two-stage vertical pipette puller (Narishige, East Meadow, N.Y.). […] For rapid application of agonist-containing solutions to neurons, the SF-77B system (Warner Instrument Corp., Hamden, Conn.) was used.\nFIG. 4. […] A: Effect of 3,5-DBr-L-Phe on the evoked EPSCs in rat cerebrocortical cultured neuron. Examples of average EPSCs (20 traces average) in control conditions (open circle), in 3,5-DBr-L-Phe (filled circle). Synaptic responses were evoked by applying two sub-threshold electric stimuli (0.4-1 ms, 50-90 V, 250 ms apart) to an extracellular electrode (a patch electrode filled with the extracellular solution) positioned in the vicinity of the presynaptic neuron. Sweeps were recorded at 10 s intervals. After 20 sweeps, 100 μM 3,5-DBr-L-Phe was added. Neuron was held in whole-cell mode at Vh=−60 mV in Mg^2+ (1 mM) containing extracellular solution. […] The amplitude of the 1st and 2nd EPSCs were measured against the baseline; each point represents an average of five subsequent sweeps. Data expressed as mean±S.E.M. for 7 cells. *, P<0.01 compared to control."}, "[5]": {"test_system": "rat cerebrocortical cultured neurons", "test": "Elicited action potentials, current-clamp in cerebrocortical cultured neurons", "format": "cell-based", "details": "100 μM; inward current pulses 2 ms, 2 nA; 5 of 5 neurons", "protocol": "as §1\nElectrophysiological recordings: Voltage- and current-clamp recordings of membrane ionic currents and potentials were conducted by using Axopatch 200B and Axoclamp 1B amplifiers (Axon Instruments, Foster City, Calif.). The perforated nystatin- and gramicidin-based patch-clamp recording techniques were used to reduce nonspecific rundown of intracellular processes. Neurons were used for electrophysiological recordings between 12 and 27 days in vitro. […] Patch microelectrodes were pulled from 1.5 mm borosilicate glass tubing using a two-stage vertical pipette puller (Narishige, East Meadow, N.Y.). […]\nC: Examples of action potentials elicited by depolarizing the membrane with inward current pulses of 2 ms duration and 2 nA amplitude in control (before application of 3,5-DBr-L-Phe), in the presence of 3,5-DBr-L-Phe (100 μM) and after wash-out of the drug. Similar responses were recorded from 5 of 5 neurons."}, "[6]": {"test_system": "AMPA-kainate receptors", "test": "AMPA-activated currents (IAMPA) in cerebrocortical cultured neurons", "format": "cell-based, rat", "details": "for effect on activity of postsynaptic AMPA-kainate receptors (AMPA/kainate receptor function): rat cerebrocortical cultured neurons", "protocol": "as §1, §3\nThe miniature EPSCs were recorded in TTX-containing (0.3-1 μM), Mg^2+-free (in case of NMDA receptor recording) extracellular solution at Vh=−60 mV. In order to isolate the NMDA component of GluR-mediated EPSCs, the non-NMDAR (AMPA/kainate) antagonist NBQX (10-20 μM) was added to extracellular solutions. To isolate the non-NMDAR-mediated EPSCs, the experiments were performed in the presence of NMDAR channel blocker, MK-801 (5-10 μM), or in the presence of the NMDAR antagonist, AP-5 (20 μM). Strychnine (1 μM) and picrotoxin (20 μM) were added to the extracellular solution to block glycine and GABA receptors, respectively. […] The basic extracellular solution contained (in mM): NaCl 140, KCl 4, CaCl2 2, MgCl2 1,4-(2-hydroxyethyl)-1-piperazineethanesulfonic acid (HEPES) 10, and glucose 11. The pH of the extracellular solution was adjusted to 7.4 using NaOH. The main solution for filling the patch electrodes contained (in mM): Cs gluconate 135, NaCl 5, KCl 10, MgCl2 1, CaCl2 1, EGTA 11, HEPES 10, Na2ATP 2, Na2GTP […]. The pH of the intracellular solution was adjusted to 7.4 using CsOH. […]\nC and D: 3,5-DBr-L-Phe depresses AMPA-activated currents (IAMPA) in rat cerebrocortical cultured neurons. Examples of AMPA-activated currents recorded from the same rat cortical neuron before application of 3,5-DBr-L-Phe, during exposure to different concentrations of BrPhe (noted in figure) and after washout of 3,5-DBr-L-Phe (C). […] Data expressed as mean±S.E.M. for 3-5 cells. *, P<0.01 compared to control."}, "[7]": {"test_system": "NMDA receptor", "details": "see ref. 12 and 13; cited from earlier work"}}, "data": [{"molecule": "N[C@@H](Cc1cc(Br)cc(Br)c1)C(=O)O", "note": "[3,5-DBr-L-Phe, 3,5-dibromo-L-phenylalanine]", "values": [{"measurement": "effect on AMPA/kainate receptor-mediated mEPSCs (frequency and amplitude)", "setting": "[1]", "value": "depresses"}, {"measurement": "effect on GABA receptor-mediated mIPSCs (amplitude and frequency)", "setting": "[2]", "value": "does not significantly affect"}, {"measurement": "sensitivity of 3,5-DBr-L-Phe-activated current to NMDA receptor specific antagonists", "setting": "[3]; 3,5-DBr-L-Phe 100 μM, AP-5 20 μM, 6 neurons", "value": "is blocked by NMDA receptor specific antagonists"}, {"measurement": "dependence of activating effect on NMDA receptor-mediated current on NMDA concentration", "setting": "[3]; 3,5-DBr-L-Phe 100 μM, NMDA 3-1000 μM, glycine 0.1 μM and 10 μM", "value": "depends on concentration of NMDA in extracellular solution"}, {"measurement": "dependence of activating effect on NMDA receptor-mediated current on glycine concentration", "setting": "[3]; 3,5-DBr-L-Phe 100 μM, different concentrations of glycine", "value": "does not depend on concentration of glycine"}, {"measurement": "effect on NMDA receptor-mediated current", "setting": "[3]", "value": "activates"}, {"measurement": "effect on NMDA receptor-mediated current", "setting": "[3]; listed as 3,5-dibromo-L-Phe", "value": "augment"}, {"measurement": "effect on glutamate release", "setting": "[4]", "value": "causes depression"}, {"measurement": "effect on glutamate release", "setting": "[4]; listed as 3,5-dibromo-L-Phe", "value": "significantly depresses"}, {"measurement": "effect on elicited action potentials", "setting": "[5]", "value": "does not significantly affect"}, {"measurement": "effect on AMPA-activated currents (IAMPA)", "setting": "[6]; AMPA 3 μM, exposure started 45 s before AMPA, different concentrations", "value": "depresses"}, {"measurement": "effect on activity of postsynaptic AMPA-kainate receptors (AMPA/kainate receptor function)", "setting": "[6]", "value": "causes depression"}, {"measurement": "effect on activity of postsynaptic AMPA-kainate receptors (AMPA/kainate receptor function)", "setting": "[6]; listed as 3,5-dibromo-L-Phe", "value": "significantly depresses"}]}, {"molecule": "N[C@@H](Cc1cccc(Br)c1)C(=O)O", "note": "[3-bromo-L-Phe, 3-bromo-L-phenylalanine]", "values": [{"measurement": "effect on NMDA receptor-mediated current", "setting": "[3]", "value": "augment"}, {"measurement": "effect on glutamate release", "setting": "[4]", "value": "significantly depresses"}, {"measurement": "effect on activity of postsynaptic AMPA-kainate receptors (AMPA/kainate receptor function)", "setting": "[6]", "value": "significantly depresses"}]}, {"molecule": "NC(CCCP(=O)(O)O)C(=O)O", "note": "(stereo not drawn) [AP-5, reference compound]", "values": [{"measurement": "effect of antagonist on 3,5-DBr-L-Phe-activated current", "setting": "[3]; AP-5 20 μM, 3,5-DBr-L-Phe 100 μM", "value": "depression of 3,5-DBr-L-Phe-activated current"}]}, {"molecule": "N[C@@H](Cc1ccccc1)C(=O)O", "note": "[L-Phe, L-Phenylalanine]", "values": [{"measurement": "effect on NMDA receptor activity", "setting": "[7]", "value": "opposite, depressant, effect"}]}]}
